How the values were obtained:
ECHOR = assay: In-water applied weed control, transplanted paddy rice, greenhouse (Example II); assay type: in vivo, Echinochloa oryzoides (Ard.) Fritsch
Protocol: (§1) Evaluation of in-Water Applied Herbicidal Mixtures for Weed Control in Transplanted Paddy Rice
(§2) Weed seeds or nutlets of the desired test plant species were planted in puddled soil (mud) prepared by mixing a shredded, non-sterilized mineral soil (50.5 percent silt, 25.5 percent clay, and 24 percent sand, with a pH of about 7.6 and an organic matter content of about 2.9 percent) and water at a 1:1 volumetric ratio. The prepared mud was dispensed in 365 mL aliquots into 16-ounce (oz.) non-perforated plastic pots with a surface area of 86.59 square centimeters (cm^2) leaving a headspace of 3 centimeters (cm) in each pot. Mud was allowed to dry overnight prior to planting or transplanting. Rice seeds were planted in Sun Gro MetroMix® 306 planting mixture, which typically has a pH of 6.0 to 6.8 and an organic matter content of about 30 percent, in plastic plug trays. Seedlings at the second or third leaf stage of growth were transplanted into 840 mL of mud contained in 32-oz. non-perforated plastic pots with a surface area of 86.59 cm^2 4 days prior to herbicide application. The paddy was created by filling the headspace of the pots with 2.5 to 3 cm of water. When required to ensure good germination and healthy plants, a fungicide treatment and/or other chemical or physical treatment was applied. The plants were grown for 4-22 days in a greenhouse with an approximate 14 h photoperiod which was maintained at about 29′C during the day and 26° C. during the night. Nutrients were added as Osmocote® (19:6:12, N:P:K+ minor nutrients) at 2 g per 16-oz. pot and 4 g per 32-oz. pot. Water was added on a regular basis to maintain the paddy flood, and supplemental lighting was provided with overhead metal halide 1000-Watt lamps as necessary. The plants were employed for testing when they reached the first through fourth true leaf stage.
(§3) Treatments consisted of the acid or esters of 4-amino-3-chloro-5-fluoro-6-(4-chloro-2-fluoro-3-methoxy-phenyl)pyridine-2-carboxylic acid (compound A) each formulated as an SC (suspension concentrate) and various herbicidal components alone and in combination. Forms of compound A were applied on an acid equivalent basis.
(§4) Other herbicidal components were applied on an active ingredient basis and included 4-hydroxyphenyl pyruvate dioxygenase (HPPD)-inhibiting herbicides mesotrione formulated as Callisto®, sulcotrione formulated as Mikado®, pyrazolynate formulated as Sunbird® 10% GR, and benzobicyclon formulated as Benzobicyclon 3.5% or technical material.
(§5) Treatment requirements for each compound or herbicidal component were calculated based upon the rates being tested, the concentration of active ingredient or acid equivalent in the formulation, an application volume of 2 mL per component per pot, and an application area of 86.59 cm^2 per pot.
(§6) For formulated compounds, a measured amount was placed in an individual 100 or 200 mL glass vial and was dissolved in a volume of 1.25% (v/v) Agri-Dex® crop oil concentrate to obtain application solutions.
(§7) For technical grade compounds, a weighed amount was placed in an individual 100 to 200 mL glass vial and was dissolved in a volume of acetone to obtain concentrated stock solutions. […] The concentrated stock solutions obtained were diluted with an equivalent volume of an aqueous mixture containing 2.5% (v/v) crop oil concentrate so that the final application solutions contained 1.25% (v/v) crop oil concentrate.
(§8) Applications were made by injecting with a pipetter appropriate amounts of the application solutions, individually and sequentially, into the aqueous layer of the paddy. Control plants were treated in the same manner with the solvent blank. Applications were made so that all treated plant material received the same concentrations of acetone and crop oil concentrate.
(§9) The treated plants and control plants were placed in a greenhouse as described above and water was added as needed to maintain a paddy flood. […]

ECHCG [1] = assay: Post-emergence foliar-applied weed control, greenhouse (Example I); assay type: in vivo, Echinochloa crusgalli (L.) Beauv.
Description: (§10) Evaluation of Post-emergence Foliar-Applied Herbicidal Mixtures for Weed Control in Direct Seeded Rice
(§11) Seeds or nutlets of the desired test plant species were planted in a soil matrix prepared by mixing a loam or sandy loam soil (e.g., 28.6 percent silt, 18.8 percent clay, and 52.6 percent sand, with a pH of about 5.8 and an organic matter content of about 1.8 percent) and calcareous grit in an 80 to 20 ratio. The soil matrix was contained in plastic pots with a volume of 1 quart and a surface area of 83.6 square centimeters (cm^2). When required to ensure good germination and healthy plants, a fungicide treatment and/or other chemical or physical treatment was applied. The plants were grown for 8-22 days in a greenhouse with an approximate 14 h photoperiod which was maintained at about 29° C. during the day and 26° C. during the night. Nutrients (Peters Excel® 15-5-15 5-Ca 2-Mg and iron chelate) were applied in the irrigation solution as needed and water was added on a regular basis. Supplemental lighting was provided with overhead metal halide 1000-Watt lamps as necessary. The plants were employed for testing when they reached the first through fourth true leaf stage.
as §3, with “(Compound A),” for “(compound A)”, “concentrate),” for “concentrate)”, “Compound” for “compound”
as §4, with “3.5%.” for “3.5% or technical material.”
(§12) Treatment requirements were calculated based upon the rates being tested, the concentration of active ingredient or acid equivalent in the formulation, and a 12 mL application volume at a rate of 187 L/ha.
(§13) For treatments comprised of formulated compounds, measured amounts of compounds were placed individually in 25 mL glass vials and diluted in a volume of 1.25% (v/v) Agri-Dex® crop oil concentrated to obtain 12× stock solutions. […] Application solutions were prepared by adding an appropriate amount of each stock solution (e.g., 1 mL) and diluted to the appropriate final concentrations with the addition of 10 mL of an aqueous mixture of 1.25% (v/v) crop oil concentrate so that the final spray solutions contained 1.25+/−0.05% (v/v) crop oil concentrate.
(§14) For treatments comprised of formulated and technical compounds, weighed amounts of the technical materials were placed individually in 25 mL glass vials and dissolved in a volume of 97:3 v/v acetone/DMSO to obtain 12× stock solutions, and measured amounts of the formulated compounds were placed individually in 25 mL glass vials and diluted in a volume of 1.5% (v/v) crop oil concentrate or water to obtain 12× stock solutions. […] Application solutions were prepared by adding an appropriate amount of each stock solution (e.g., 1 mL) and diluted to the appropriate final concentrations with the addition of an appropriate amount of an aqueous mixture of 1.5% (v/v) crop oil concentrate so that the final spray solutions contained 1.25% (v/v) crop oil concentrate. As required, additional water and/or 97:3 v/v acetone/DMSO was added to individual application solutions so that the final acetone and DMSO concentrations of the application solutions being compared were 8.1% and 0.25%, respectively.
(§15) All stock solutions and applications solutions were visually inspected for compound compatibility prior to application. Spray solutions were applied to the plant material with an overhead Mandel track sprayer equipped with a 8002E nozzles calibrated to deliver 187 L/ha over an application area of 0.503 m^2 at a spray height of 18 to 20 inches (46 to 50 cm) above average plant canopy height. […]

CYPIR = assay: as above; assay type: in vivo, Cyperus iria L.
Description: as §10, §11
as §3, with “(Compound A),” for “(compound A)”, “concentrate),” for “concentrate)”, “Compound” for “compound”
as §4, with “3.5%.” for “3.5% or technical material.”
as §12, §13, §14, §15

SCPMA = assay: In-water applied weed control, transplanted paddy rice, greenhouse (Example II); assay type: in vivo; settings: 35 gai/ha
Protocol: as §1, §2, §3, §4, §5, §6, §7, §8, §9

ECHCG [2] = assay: as above; assay type: in vivo, Echinochloa crusgalli (L.) Beauv.
Protocol: as §1, §2, §3, §4, §5, §6, §7, §8, §9

DIGSA = assay: Post-emergence foliar-applied weed control, greenhouse (Example I); assay type: in vivo, Digitaria sanguinalis (L.) Scop.; settings: 140 gaiha
Description: as §10, §11
as §3, with “(Compound A),” for “(compound A)”, “concentrate),” for “concentrate)”, “Compound” for “compound”
as §4, with “3.5%.” for “3.5% or technical material.”
as §12, §13, §14, §15

ECHCO = assay: as above; assay type: in vivo, Echinochloa colona (L.) Link
Description: as §10, §11
as §3, with “(Compound A),” for “(compound A)”, “concentrate),” for “concentrate)”, “Compound” for “compound”
as §4, with “3.5%.” for “3.5% or technical material.”
as §12, §13, §14, §15

FIMMI = assay: In-water applied weed control, transplanted paddy rice, greenhouse (Example II); assay type: in vivo, Fimbristylis miliacea (L.) Vahl; settings: 35 gai/ha
Protocol: as §1, §2, §3, §4, §5, §6, §7, §8, §9

SCPJU = assay: Post-emergence foliar-applied weed control, greenhouse (Example I); assay type: in vivo, Schoenoplectus juncoides (Roxb.) Palla
Description: as §10, §11
as §3, with “(Compound A),” for “(compound A)”, “concentrate),” for “concentrate)”, “Compound” for “compound”
as §4, with “3.5%.” for “3.5% or technical material.”
as §12, §13, §14, §15

BRAPP = assay: as above; assay type: in vivo
Description: as §10, §11
as §3, with “(Compound A),” for “(compound A)”, “concentrate),” for “concentrate)”, “Compound” for “compound”
as §4, with “3.5%.” for “3.5% or technical material.”
as §12, §13, §14, §15

IPOHE = assay: as above; assay type: in vivo, Ipomoea hederacea Jacq.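 Also: visual score 0 no injury to 100 complete kill versus untreated plants.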
Description: as §10, §11
as §3, with “(Compound A),” for “(compound A)”, “concentrate),” for “concentrate)”, “Compound” for “compound”
as §4, with “3.5%.” for “3.5% or technical material.”
as §12, §13, §14, §15
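For Visual Weed Control (%) - 20 DAA ECHCG Obs in this document: visual score 0 no injury to 100 complete kill versus untreated plants.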

SMILES: CCCCOC(=O)c1nc(-c2ccc(Cl)c(OC)c2F)c(F)c(N)c1Cl [Compound A n-Butyl Ester]
- Visual Weed Control (%) -20 DAA ECHOR Obs (ECHOR; 35 gae/ha): 35%
- Visual Weed Control (%) -20 DAA ECHOR Obs (ECHOR; 70 gae/ha): 40%
- Visual Weed Control (%) - 21 DAA ECHCG Obs (ECHCG [1]; 17.5 gae/ha): 78%
- Visual Weed Control (%) - 21 DAA ECHCG Obs (ECHCG [1]; 35 gae/ha): 93%

SMILES: CS(=O)(=O)c1ccc(C(=O)C2C(=O)CCCC2=O)c([N+](=O)[O-])c1 [Mesotrione, 2-[4-(methylsulfonyl)-2-nitrobenzoyl]-1,3-cyclohexanedione, reference compound]
- Visual Weed Control (%) - 20 DAA CYPIR Obs (CYPIR; 17.5 gai/ha): 0%
- Visual Weed Control (%) - 20 DAA CYPIR Obs (CYPIR; 35 gai/ha): 50%
- Visual Weed Control (%) - 21 DAA SCPMA Obs (SCPMA): 80%
- Visual Weed Control (%) - 20 DAA ECHCG Obs (ECHCG [2]; 35 gai/ha): 10%
- Visual Weed Control (%) - 20 DAA ECHCG Obs (ECHCG [2]; 70 gai/ha): 25%
- Visual Weed Control (%) - 20 DAA DIGSA Obs (DIGSA): 58%
- Visual Weed Control (%) - 20 DAA ECHOR Obs (ECHOR; 140 gaiha): 80%
- Visual Weed Control (%) -20 DAA ECHOR Obs (ECHOR; 140 gaiha): 80%
- Visual Weed Control (%) - 20 DAA ECHCO Obs (ECHCO; 17.5 gai/ha): 0%
- Visual Weed Control (%) - 20 DAA ECHCO Obs (ECHCO; 35 gai/ha): 0%
- Visual Weed Control (%) - 20 DAA ECHCO Obs (ECHCO; 70 gai/ha): 0%
- Visual Weed Control (%) - 21 DAA FIMMI Obs (FIMMI): 78%
- Visual Weed Control (%) - 20 DAA SCPJU Obs (SCPJU; 17.5 gai/ha): 50%
- Visual Weed Control (%) - 20 DAA SCPJU Obs (SCPJU; 35 gai/ha): 80%
- Visual Weed Control (%) - 20 DAA BRAPP Obs (BRAPP; 17.5 gai/ha): 0%
- Visual Weed Control (%) - 20 DAA BRAPP Obs (BRAPP; 35 gai/ha): 0%
- Visual Weed Control (%) - 20 DAA IPOHE Obs (IPOHE; 35 gai/ha): 25%
- Visual Weed Control (%) - 20 DAA IPOHE Obs (IPOHE; 70 gai/ha): 50%

— US8841233B2, “Herbicidal compositions comprising 4-amino-3-chloro-5-fluoro-6-(4-chloro-2-fluoro-3-methoxyphenyl) pyridine-2-carboxylic acid or a derivative thereof and 4-hydroxyphenyl-pyruvate dioxygenase (HPPD) inhibitors” (Dow Agrosciences LLC, priority 2012, dated 2014)
